Test results as given in publication PMC4414309, “Target Modulation by a Kinase Inhibitor Engineered to Induce a Tandem Blockade of the Epidermal Growth Factor Receptor (EGFR) and c-Src: The Concept of Type III Combi-Targeting” (PLoS ONE, 2015).

Columns and labels:
c-Src = biological target: T1, c-Src (Homo sapiens, UniProt P12931); test: In vitro kinase assay, c-Src; format: biochemical; conditions: ATP 50 μM, read-out: IC50 c-Src kinase inhibition
T1 construct: purchased Enzo Life Sciences Inc, NY, USA; Signal Chem, Richmond, Canada
T1 sequence (P12931 whole entry): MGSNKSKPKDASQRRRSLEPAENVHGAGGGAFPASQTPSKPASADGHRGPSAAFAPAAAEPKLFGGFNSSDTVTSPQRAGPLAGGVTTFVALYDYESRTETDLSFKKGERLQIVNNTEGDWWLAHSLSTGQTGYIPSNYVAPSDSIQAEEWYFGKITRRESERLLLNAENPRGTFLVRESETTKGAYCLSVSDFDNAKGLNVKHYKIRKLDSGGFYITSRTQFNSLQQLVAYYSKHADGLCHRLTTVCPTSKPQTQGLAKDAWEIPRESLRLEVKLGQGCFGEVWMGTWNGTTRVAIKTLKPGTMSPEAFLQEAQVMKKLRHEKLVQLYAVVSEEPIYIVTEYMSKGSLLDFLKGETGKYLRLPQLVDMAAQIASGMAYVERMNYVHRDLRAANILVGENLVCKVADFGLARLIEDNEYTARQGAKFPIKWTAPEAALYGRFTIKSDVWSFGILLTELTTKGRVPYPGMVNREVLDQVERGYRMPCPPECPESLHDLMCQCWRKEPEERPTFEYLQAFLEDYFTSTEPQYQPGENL
Protocol: The EGFR and c-Src kinase assays were performed in 96-well plates (NuncMaxisorp) coated with PGT (poly L-glutamic acid L-tyrosine, 4:1, Sigma Aldrich, MO, USA) and incubated at 37°C for 48h prior to using. PGT served as the substrate to be phosphorylated by EGFR (Enzo Life Sciences Inc, NY, USA, Signal Chem, Richmond, Canada) and c-Src (Enzo Life Sciences Inc, NY, USA, Signal Chem, Richmond, Canada) in the presence of ATP (50 μM). […] To each well, 15 ng of EGFR (20 μg/ml) or 6 ng of c-Src (0.1 μg/μl) were added. The phosphorylated substrate was detected using an HRP-conjugated anti-phosphotyrosine antibody (Santa Cruz Biotechnology, CA). The signal was developed by the addition of 3, 3’, 5, 5’-tetramethylbenzidine peroxidase substrate (Kierkegaard and Perry Laboratories, Gaithersburg, MD) and the colorimetric reaction was monitored at 450 nm using a microplate reader ELx808 (BioTek Instruments). The IC50 values were calculated using GraphPad Prism 6.0 (GraphPadSoftware, Inc., San Diego, CA). Each experiment was carried out at least three times, in duplicate.

phospho-EGFR (Y1068) = test: Western blot of EGFR phosphorylation in cells; format: cell-based, mouse
Protocol: (§1) NIH3T3-Her14 and 4T1 cells grown in 10% FBS containing media were plated (~ 1 x 10^6 cells/well) in 6-well plates and allowed to attach overnight (37°C, 5% CO2). The cells were rinsed twice with PBS twenty-four hours later and starved overnight on addition of serum-free media. Thereafter, they were treated with different doses of AL776 for 2 hours, washed with PBS (twice) and stimulated with 50 ng/ml EGF for 30 min at 37°C. Cells were washed, detached by scraping in ice-cold PBS and collected by centrifugation for 15 min at 3000 rpm. Cell pellets were re-suspended in cold lysis buffer 50 mM Tris-HCl pH 7.5; 150 mM NaCl; 1% Nonidet P-40, 1 mM EDTA; 5 mM NaF; 1 mM Na3VO4; protease inhibitor tablet (Roche Biochemicals, Laval, Canada)]. Lysates were kept on ice for 1 h and collected by centrifugation at 13,000 rpm for 20 min at 4°C. The concentration of protein was determined using the Bio-Rad protein assay kit (Bio-Rad laboratories, Hercules, CA). Equal amounts of proteins were loaded, resolved on 10% SDS-PAGE and thereafter transferred to a polyvinylidenedifluoride (PVDF) membrane (Milipore, Bedford, MA). […]

phospho-Src (Y416) = test: Western blot of c-Src phosphorylation in cells; format: cell-based, mouse
Protocol: as §1

4T1 cells [1] = test: Wound-healing assay, 4T1; format: cell-based, mouse; conditions: 4T1, 0.1 μM, 24h drug exposure
Protocol: MDA-MB-231 and 4T1 cells were plated in 6-well plates (500,000 cells/well) and allowed to attach overnight (37°C, 5% CO2). The following day, media was removed and a cross scratch was made in the middle of the cell monolayer. […] The scratch was visualized at two different time points (0 and 24h) using the Leica DM IL inverted microscope (10X) and images were obtained using the Leica DFC300FX camera.

[2] = test system: NIH3T3 wild type and EGFR transfected cells; test: Apoptosis by annexin V/PI flow cytometry; format: cell-based, mouse; conditions: 48h
Protocol: NIH3T3 cell lines (wild type and EGFR transfected) were plated in 6-well plates (500,000 cells/well) and allowed to grow overnight (37°C, 5% CO2). […] They were subsequently collected using trypsin (Wisent Inc., St-Bruno, Canada), centrifuged (2000 rpm, 5 min), rinsed with PBS and centrifuged again to obtain a cell pellet. The pellet was re-suspended in binding buffer (1X) and prior to being analyzed, annexin V-FITC and PI stains (eBioscience, San Diego, CA, USA) were added to the cells and incubated for 15 min in the dark at 4°C. Annexin V–FITC and PI binding were analyzed with a Becton Dickinson FACScan. Data were collected using logarithmic amplification of both the FL1 (FITC) and FL2 (PI) channels. Quadrant analysis of coordinate dot plots was done with CellQuestPro software. The experiment was carried out three times.

4T1 cells [3] = test: Growth inhibition, SRB assay, 4T1; conditions: Mus musculus, 4T1, 120 h, read-out: IC50 growth inhibition 4T1
Protocol: (§2) Growth inhibition was measured in cells using the sulforhodamine B (SRB) assay [48]. […] The plates were subsequently rinsed with 1% acetic acid, and allowed to dry overnight. […] The results were analyzed using GraphPad Prism 6.0 (GraphPadSoftware, Inc., San Diego, CA) and the sigmoidal dose response curve was used to determine IC50 values. Each experiment was carried out at least four times, in triplicate.

MDA-MB-231 cells = test: Growth inhibition, SRB assay, MDA-MB-231; conditions: Homo sapiens, MDA-MB-231, 120 h, read-out: IC50 growth inhibition MDA-MB-231
Protocol: as §2

[4] = test system: NIH3T3-Her14 (EGFR transfected) cells; test: Growth inhibition, SRB assay, NIH3T3-Her14
Protocol: as §2

[5] = test system: EGFR phosphorylation in 4T1 tumours; test: Pharmacodynamics in 4T1 tumours, EGFR phosphorylation; conditions: i.v., AL776 40 mg/kg, gefitinib + dasatinib 20 mg/kg each
Protocol: (§3) Mice were implanted with 4T1 mammary tumour cells, 15 million cells/flank (suspended in 200 μL PBS), subcutaneously.
(§4) Mice were sacrificed 1h or 24h after treatment and their tumours were collected and snap frozen at -80°C for further analysis using western blots. Tumours were crushed using a mortar/pestle chilled using liquid nitrogen and lysed with RIPA buffer diluted to a 1X concentration and supplemented with 1mM PMSF (Cell Signaling Technology, USA). Western blot analysis was carried out with the tumour samples, similar to the method described earlier.

[6] = test system: c-Src phosphorylation in 4T1 tumours; test: Pharmacodynamics in 4T1 tumours, c-Src phosphorylation; conditions: i.v., AL776 40 mg/kg, gefitinib + dasatinib 20 mg/kg each
Protocol: as §3, §4

[7] = test system: ERK1/2 phosphorylation in 4T1 tumours; test: Pharmacodynamics in 4T1 tumours, ERK1/2 phosphorylation; conditions: i.v., AL776 40 mg/kg, gefitinib + dasatinib 20 mg/kg each
Protocol: as §3, §4

[8] = NIH3T3-Her14 and 4T1 cells, 2 h drug, EGF 50 ng/ml 30 min

SMILES: Cc1nc(Nc2ncc(C(=O)Nc3c(C)cccc3Cl)s2)cc(N2CCN(CCOC(=O)CCC(=O)OCCN(C)Cc3ccc(C(=O)Nc4ccc5ncnc(Nc6cccc(Cl)c6)c5c4)cc3)CC2)n1 [AL776]
- IC50 (c-Src): 3 nM
- Concentration of maximal inhibition of EGFR phosphorylation (phospho-EGFR (Y1068); [8]): 1 µM
- Concentration of robust inhibition of EGFR phosphorylation in cells (phospho-EGFR (Y1068); in cells): 0.25 to 1 µM
- Concentration of maximal inhibition of c-Src phosphorylation (phospho-Src (Y416); [8]): 1 µM
- Concentration of robust inhibition of c-Src phosphorylation in cells (phospho-Src (Y416); in cells): 0.25 to 1 µM
- Effect on wound-closure (4T1 cells [1]): blocked wound-closure
- Level of apoptosis (early + late) ([2]; 1μM dose): higher level of apoptosis than gefitinib or dasatinib
- Lowest concentration inducing apoptosis [2]: 1 µM
- IC50 (4T1 cells [3]): 70 ± 10 nM
- IC50 (MDA-MB-231 cells): 50 ± 4 nM
- Rank of growth inhibitory potency among the binary targeting molecules ([4]; EGFR transfectant, S2 Fig.): most potent on the EGFR transfectant
- IC50 ([4]; Mus musculus, 120 h, read-out: IC50 growth inhibition NIH3T3 – Her14): 180 nM
- Growth inhibitory potency compared with gefitinib or dasatinib ([4]; NIH3T3-Her14 cells, 5 days): 2–4 fold
- Inhibition of EGFR phosphorylation in tumours ([5]; 1h post-administration): strong blockade
- Inhibition of EGFR phosphorylation in tumours ([5]; 24 h post-treatment): reversed
- Inhibition of c-Src phosphorylation in tumours ([6]; 1h post-administration): strong blockade
- Inhibition of c-Src phosphorylation in tumours ([6]; 24 h post-treatment): reversed
- Inhibition of ERK1/2 phosphorylation in tumours ([7]; 1h post-administration): strongly inhibited
- Inhibition of ERK1/2 phosphorylation in tumours ([7]; 24 h post-treatment): reversed
